Experiments:
[1] = target: T1, aldose reductase derived from human muscle cells (Homo sapiens, UniProt P15121); experiment: Inhibitory activities of aldose reductase; assay type: biochemical; conditions: for inhibitory activities of aldose reductase (in words): concentrations as in Table 1; for inhibition at 10 µM: final concentration 10 μM; for inhibition at 10 µM / inhibition at 20 µM / inhibition at 40 µM: average of two values, read-out: Inhibitory Ratio (%) of Aldose Reductase; for inhibition at 20 µM: final concentration 20 μM; for inhibition at 40 µM: final concentration 40 μM
T1 construct: purchased Wako Pure Chemical Industries
Procedure: Inhibitory activities of aldose reductase of the compounds prepared in Examples 1 to 9 (TB3, TB4, TB5, TB6, TB7, TB8, TB9, compound (C081) or compound (C042)) were measured by the following method. Twenty microliters of 100 mM methylglyoxal was added to 10 μL of a sample (dissolved each compound in a 50% aqueous dimethyl sulfoxide solution), 100 μL of 0.2 M phosphate buffer (pH 6.2), 20 μL of 1 mM NADPH (phosphate buffer), and 10 μL of a solution of aldose reductase derived from human muscle cells (0.1 U/mL, manufactured by Wako Pure Chemical Industries, phosphate buffer). After 30 seconds passed, change in absorbance of NADPH at 340 nm was determined for 180 seconds. A 50% aqueous dimethyl sulfoxide solution was used as a negative control in place of the sample. In addition, the absorbance was determined using distilled water as a blank of each sample in place of the methylglyoxal solution. The found values are expressed as an average of the values in two experimental values. The inhibitory ratio (%) of aldose reductase was calculated in accordance with the following formula. Inhibitory Ratio (%)=[1−[(ΔAs−ΔAsb)/(ΔAc−ΔAcb)]]×100
Here, ΔAs and ΔAc are changes in absorbance per 1 minute of a sample solution, and a negative control solution, respectively, and ΔAsb and ΔAcb are changes in absorbance per 1 minute of blank of a sample solution, and a negative control solution, respectively.

RAW 264.7 cells = experiment: Suppressive activities of NO production (LPS-induced, NO2- by Griess reagent); assay type: cell-based; conditions: for inhibition at 5 µM / inhibition at 10 µM / inhibition at 20 µM: Mus musculus, LPS, 16 hours, read-out: Suppressive Ability for Induction of NO Production by LPS (%); for inhibition at 5 µM: RAW264.7, 5 μM; for inhibition at 10 µM: RAW264.7, 10 μM; for inhibition at 20 µM: RAW264.7, 20 μM; for suppression of the induction of NO production by LPS (in words): concentrations as in Table 2
Procedure: Suppressive activities of NO production of the compounds prepared in Examples 1 to 9 (TB3, TB4, TB5, TB6, TB7, TB8, TB9, compound (C081) and compound (C042)) were measured by the following method. RAW 264.7 cells (ATCC TIB 71) were suspended in Dulbecco's modified Eagle's medium (manufactured by Sigma, D5796) containing 10% fetal bovine serum (manufactured by Bio Whittaker, 14-506F), so as to have a concentration of 4×10^5 cells/mL, and the suspension was put to each well of a 48-well microtiter plate in an amount of 500 μL per well. The cells were cultured at 37° C. in the presence of 5% carbon dioxide gas. After 24 hours, the medium was exchanged with Dulbecco's modified Eagle's medium (manufactured by Bio Whittaker, 12-917F) containing 10% fetal bovine serum (manufactured by Bio Whittaker), 2 mM L-glutamine (manufactured by Life Tech Oriental Co., Ltd., 25030-149) without containing phenol red. A 10 mM, 5 mM, or 2.5 mM TB3, TB4, TB5, TB6, TB7, TB8, TB9, compound (C081) or compound (C042) (all are dimethyl sulfoxide solution) was added to each well in an amount of 1 μL per well. After additional 1 hour of culture, a 100 μg/mL aqueous lipopolysaccharide (LPS, manufactured by Sigma, L-2010) solution was added to each well in an amount of 5 μL per well, and the cells were cultured for 16 hours. Thereafter, the concentration of NO2^− which was produced by oxidation of NO in the medium was determined. In addition, there was set a group with addition of dimethyl sulfoxide in place of the each compound as a control. After the above-mentioned culture, 100 μL of a 4% grease reagent (manufactured by Sigma, G4410) was added to 100 μL of the supernatant of the culture medium, and the mixture was allowed to stand at room temperature for 15 minutes. Thereafter, absorbance at 540 nm was determined. The concentration of NO2^− in the medium was calculated from a calibration curve prepared from known concentrations of NaNO2 (manufactured by Sigma, S2252). All of the determinations were carried out twice. The suppressive ability of NO production of the each compound was calculated in accordance with the following formula.

SMILES | inhibitory activities of aldose reductase (in words) [1] | inhibition at 10 µM [1] [%] | inhibition at 20 µM [1] [%] | inhibition at 40 µM [1] [%] | inhibition at 5 µM (RAW 264.7 cells) [%] | inhibition at 10 µM (RAW 264.7 cells) [%] | inhibition at 20 µM (RAW 264.7 cells) [%] | suppression of the induction of NO production by LPS (in words) (RAW 264.7 cells)
CCOC(C)(C)C(O)CC/C(C)=C/Cc1c(O)ccc(C(=O)/C=C/c2ccc(O)cc2)c1O (centres unmarked) [TB6, 1-[3-(7-ethoxy-6-hydroxy-3,7-dimethyl-2-octenyl)-2,4-dihydroxyphenyl]-3-(4-hydroxyphenyl)-2-propen-1-one] | inhibitory activities of aldose reductase in a concentration-dependent manner | 41.9 | 56.5 | 66.8 | 17.3 | 29.4 | 62.2 | suppressed the induction of NO production by LPS in a concentration-dependent manner
COc1ccc(C(=O)/C=C/c2ccc(O)cc2)c(O)c1C/C=C(\C)C/C=C/C(C)(C)OO [TB8, 1-[2-hydroxy-3-(7-hydroperoxy-3,7-dimethyl-2,5-octadienyl)-4-methoxyphenyl]-3-(4-hydroxyphenyl)-2-propen-1-one] | inhibitory activities of aldose reductase in a concentration-dependent manner | 17.9 | 32.7 | 44.2 | 12.2 | 18.7 | 36.9 | suppressed the induction of NO production by LPS in a concentration-dependent manner
COc1ccc(C(=O)/C=C/c2ccc(O)cc2)c2c1CC(C(C)(C)O)O2 (centres unmarked) [TB4, 1-[2,3-dihydro-2-(1-hydroxy-1-methylethyl)-4-methoxybenzofuran-7-yl]-3-(4-hydroxyphenyl)-2-propen-1-one] | inhibitory activities of aldose reductase in a concentration-dependent manner | 57.4 | 57.9 | – | 32.6 | 56.4 | 63.7 | suppressed the induction of NO production by LPS in a concentration-dependent manner
CC(C)CCc1c(O)ccc(C(=O)/C=C/c2ccc(O)cc2)c1O [Compound (C042), 1-[2,4-dihydroxy-3-(3-methylbutyl)phenyl]-3-(4-hydroxyphenyl)-2-propen-1-one] | inhibitory activities of aldose reductase in a concentration-dependent manner | 47.8 | 68.7 | – | – | 19.3 | 50.2 | suppressed the induction of NO production by LPS in a concentration-dependent manner
C=C(C)C(CC/C(C)=C/Cc1c(OC)ccc(C(=O)/C=C/c2ccc(O)cc2)c1O)OO (centres unmarked) [TB9, 1-[2-hydroxy-3-(6-hydroperoxy-3,7-dimethyl-2,7-octadienyl)-4-methoxyphenyl]-3-(4-hydroxyphenyl)-2-propen-1-one] | inhibitory activities of aldose reductase in a concentration-dependent manner | 31.6 | 44.7 | 57.3 | 11.2 | 29.2 | 49.6 | suppressed the induction of NO production by LPS in a concentration-dependent manner
COc1ccc(C(=O)/C=C/c2ccc(O)cc2)c(O)c1CC1C2(C)CCC(O2)C1(C)C (centres unmarked) [TB7, 1-[3-(2,5-epoxy-2,6,6-trimethyl-cyclohexylmethyl)-2-hydroxy-4-methoxyphenyl]-3-(4-hydroxyphenyl)-2-propen-1-one] | inhibitory activities of aldose reductase in a concentration-dependent manner | 20.1 | 33.8 | 54.3 | 12.2 | 23.9 | 42.9 | suppressed the induction of NO production by LPS in a concentration-dependent manner
C/C(=C\Cc1c(O)ccc(C(=O)/C=C/c2ccc(O)cc2)c1O)CCC(O)C(C)(C)O (centres unmarked) [TB5, 1-[2,4-dihydroxy-3-(6,7-dihydroxy-3,7-dimethyl-2-octenyl)phenyl]-3-(4-hydroxyphenyl)-2-propen-1-one] | inhibitory activities of aldose reductase in a concentration-dependent manner | 35.1 | 49.7 | 66.7 | 17.9 | 35.2 | 76 | suppressed the induction of NO production by LPS in a concentration-dependent manner
COc1ccc(C(=O)/C=C/c2ccc(O)cc2)c(O)c1C/C=C(\C)C/C=C/C(C)(C)O [Compound (C081), 1-[2-hydroxy-3-(7-hydroxy-3,7-dimethyl-2,5-octadienyl)-4-methoxyphenyl]-3-(4-hydroxyphenyl)-2-propen-1-one] | inhibitory activities of aldose reductase in a concentration-dependent manner | 11.9 | 16.2 | 26.7 | – | 31.6 | 53.7 | suppressed the induction of NO production by LPS in a concentration-dependent manner
CC(C)=CCCC(C)(O)C1Cc2c(ccc(C(=O)/C=C/c3ccc(O)cc3)c2O)O1 (centres unmarked) [TB3, 1-[2,3-dihydro-4-hydroxy-2-(1-hydroxy-1,5-dimethyl-4-hexenyl)-benzofuran-5-yl]-3-(4-hydroxyphenyl)-2-propen-1-one] | inhibitory activities of aldose reductase in a concentration-dependent manner | 14.2 | 30.1 | 53.8 | 8.9 | 9.5 | 43.8 | suppressed the induction of NO production by LPS in a concentration-dependent manner

From US7498357B2, “Chalcone compounds” (Takara Bio Inc., priority 2003, dated 2009)
